3 compounds from patent publication US9717678B2, “Delivery systems for improving oral bioavailability of Fenobam, its hydrates, and salts” (MURTY PHARMACEUTICALS, INC., priority 2011, dated 2017) can be followed below.

Converted amounts (≈) assume the structure as drawn.

A short description of this series: Equilibrium solubility by HPLC. Format: physicochemical.
[1] abbreviates: comparative equilibrium solubility (Table 2), solvent 0.1 N HCl.
Setting [2] is: comparative equilibrium solubility (Table 2), solvent PEG 400.
Setting [3] is: comparative equilibrium solubility (Table 2), solvent Phosphate Buffer, pH 7.4.

Consider `CN1CC(=O)N=C1NC(=O)Nc1cccc(Cl)c1.O=S(=O)(O)O` [Fenobam Sulfate], for which the Solubility was 303 µg/mL under setting [1], 5650 µg/mL under setting [2] and 27 µg/mL under setting [3].
Take `CN1CC(=O)NC1=NC(=O)Nc1cccc(Cl)c1` [Fenobam]: the Solubility under setting [1] amounted to 392 µg/mL (≈ 1470 µM); the Solubility under setting [2] was 24400 µg/mL (≈ 91500 µM); the Solubility under setting [3] turned out to be 33 µg/mL (≈ 124 µM); the Solubility (equilibrium solubility, solvent 0.1 N HCl) was determined as 392 µg/mL (≈ 1470 µM); the Solubility (equilibrium solubility, solvent 10% Cremophor RH 40) was determined as 643 µg/mL (≈ 2410 µM); the Solubility (equilibrium solubility, solvent 10% Polysorbate 80) was 1190 µg/mL (≈ 4460 µM). Further, the Solubility (equilibrium solubility, solvent 20% Polyethylene Glycol (PEG) 400) was 124 µg/mL (≈ 465 µM); the Solubility (equilibrium solubility, solvent 20% Propylene Glycol) was determined as 65 µg/mL (≈ 244 µM); the Solubility (equilibrium solubility, solvent 30% HP-Beta-Cyclodextrin) was 2190 µg/mL (≈ 8210 µM); the Solubility (equilibrium solubility, solvent Acetate Buffer, pH 4.0) was determined as 25 µg/mL (≈ 93.7 µM); the Solubility (equilibrium solubility, solvent Ethanol) is 2900 µg/mL (≈ 10900 µM); the Solubility (equilibrium solubility, solvent Phosphate Buffer, pH 7.4) is 33 µg/mL (≈ 124 µM). The same compound displayed a Solubility (equilibrium solubility, solvent Polyethylene Glycol (PEG) 400) of 24400 µg/mL (≈ 91500 µM) and a Solubility (equilibrium solubility, solvent Propylene Glycol) of 4460 µg/mL (≈ 16700 µM).
Regarding `CN1CC(=O)N/C1=N\C(=O)Nc1cccc(Cl)c1.O` [Fenobam Monohydrate], the Solubility runs as follows: under setting [1], 308 µg/mL; under setting [2], 34500 µg/mL; under setting [3], 39 µg/mL.

The term Solubility denotes how much of the substance goes into solution per volume. Read a low Solubility as little dissolved substance.
